According to ChEMBL document CHEMBL1268847, “Discovery of orally bioavailable imidazo[1,2-a]pyrazine-based Aurora kinase inhibitors” (Bioorg Med Chem Lett, 2010):
≈ marks a conversion by molar mass, not a printed value. Blank lines part the entries; values can stand above or below the molecule they belong to.

Legend:
[1] = biological target: T1, Aurora kinase A (Homo sapiens, UniProt O14965); experiment: Inhibition of Aurora A
T1 sequence (O14965 whole entry): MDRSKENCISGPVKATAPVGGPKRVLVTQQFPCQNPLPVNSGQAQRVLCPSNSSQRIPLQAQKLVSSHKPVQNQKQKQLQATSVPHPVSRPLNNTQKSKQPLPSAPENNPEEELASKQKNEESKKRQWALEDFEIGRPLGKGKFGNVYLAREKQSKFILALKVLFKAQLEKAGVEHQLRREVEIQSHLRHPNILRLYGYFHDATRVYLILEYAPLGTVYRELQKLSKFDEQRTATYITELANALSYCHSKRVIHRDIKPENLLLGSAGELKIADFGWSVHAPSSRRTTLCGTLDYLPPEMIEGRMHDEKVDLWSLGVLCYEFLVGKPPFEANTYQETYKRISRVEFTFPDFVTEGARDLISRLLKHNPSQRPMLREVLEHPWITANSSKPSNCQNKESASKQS

[2] = biological target: Aurora kinase B (Homo sapiens, UniProt Q96GD4); experiment: Inhibition of Aurora B
Chain of Aurora kinase B (Q96GD4 whole entry): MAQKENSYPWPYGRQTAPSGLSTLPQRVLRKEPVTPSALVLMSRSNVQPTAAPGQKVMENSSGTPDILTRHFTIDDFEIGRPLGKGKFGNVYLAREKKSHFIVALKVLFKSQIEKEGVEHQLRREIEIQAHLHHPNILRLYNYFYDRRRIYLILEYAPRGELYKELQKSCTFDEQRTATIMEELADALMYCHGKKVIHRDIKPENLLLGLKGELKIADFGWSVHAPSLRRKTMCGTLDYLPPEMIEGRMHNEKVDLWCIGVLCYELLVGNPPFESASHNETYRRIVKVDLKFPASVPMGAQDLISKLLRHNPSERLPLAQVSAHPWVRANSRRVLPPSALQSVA

[3] = Inhibition of Aurora kinase assessed as reduction histone H3 Ser10 phosphorylation by cell based assay
[4] = biological target: Tyrosine-protein kinase Lck (Homo sapiens, UniProt P06239); experiment: Inhibition of LCK
Chain of Tyrosine-protein kinase Lck (P06239 whole entry): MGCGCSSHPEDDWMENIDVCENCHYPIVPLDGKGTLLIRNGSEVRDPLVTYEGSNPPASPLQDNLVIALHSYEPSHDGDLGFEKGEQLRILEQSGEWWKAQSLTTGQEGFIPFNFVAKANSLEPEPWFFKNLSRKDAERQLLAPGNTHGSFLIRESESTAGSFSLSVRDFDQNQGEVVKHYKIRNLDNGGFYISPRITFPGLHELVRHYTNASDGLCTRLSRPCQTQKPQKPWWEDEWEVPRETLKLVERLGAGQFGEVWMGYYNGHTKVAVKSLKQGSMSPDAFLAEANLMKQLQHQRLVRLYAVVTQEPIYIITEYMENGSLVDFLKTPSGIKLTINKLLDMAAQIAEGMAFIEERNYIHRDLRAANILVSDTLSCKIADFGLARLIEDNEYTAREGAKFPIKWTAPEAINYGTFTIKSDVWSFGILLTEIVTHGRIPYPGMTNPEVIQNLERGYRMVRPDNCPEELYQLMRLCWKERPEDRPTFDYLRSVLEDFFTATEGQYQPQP

[5] = AUC (0-6 hrs) in rat at 10 mg/kg, po; assay type: ADME, organism-based; parameters: time < 6 hr, dose 10 mg/kg, route oral; conditions: plasma
[6] = biological target: T2, Interleukin-1 receptor-associated kinase 4 (Homo sapiens, UniProt Q9NWZ3); experiment: Inhibition of IRK4
T2 sequence (Q9NWZ3 whole entry): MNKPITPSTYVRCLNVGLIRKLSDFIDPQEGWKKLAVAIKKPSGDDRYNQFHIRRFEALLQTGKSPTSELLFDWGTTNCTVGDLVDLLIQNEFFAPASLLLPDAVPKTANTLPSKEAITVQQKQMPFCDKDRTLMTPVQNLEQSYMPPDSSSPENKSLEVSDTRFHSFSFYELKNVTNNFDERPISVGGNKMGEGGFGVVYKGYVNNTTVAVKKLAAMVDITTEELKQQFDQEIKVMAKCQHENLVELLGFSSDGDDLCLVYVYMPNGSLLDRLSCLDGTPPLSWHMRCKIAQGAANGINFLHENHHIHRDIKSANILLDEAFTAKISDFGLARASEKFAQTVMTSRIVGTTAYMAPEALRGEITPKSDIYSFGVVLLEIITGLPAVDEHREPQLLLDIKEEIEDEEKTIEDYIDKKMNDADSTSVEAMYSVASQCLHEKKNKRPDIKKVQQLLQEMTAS

[7] = biological target: Vascular endothelial growth factor receptor 2 (Homo sapiens, UniProt P35968); experiment: Inhibition of VEGFR2
Chain of Vascular endothelial growth factor receptor 2 (P35968 whole entry): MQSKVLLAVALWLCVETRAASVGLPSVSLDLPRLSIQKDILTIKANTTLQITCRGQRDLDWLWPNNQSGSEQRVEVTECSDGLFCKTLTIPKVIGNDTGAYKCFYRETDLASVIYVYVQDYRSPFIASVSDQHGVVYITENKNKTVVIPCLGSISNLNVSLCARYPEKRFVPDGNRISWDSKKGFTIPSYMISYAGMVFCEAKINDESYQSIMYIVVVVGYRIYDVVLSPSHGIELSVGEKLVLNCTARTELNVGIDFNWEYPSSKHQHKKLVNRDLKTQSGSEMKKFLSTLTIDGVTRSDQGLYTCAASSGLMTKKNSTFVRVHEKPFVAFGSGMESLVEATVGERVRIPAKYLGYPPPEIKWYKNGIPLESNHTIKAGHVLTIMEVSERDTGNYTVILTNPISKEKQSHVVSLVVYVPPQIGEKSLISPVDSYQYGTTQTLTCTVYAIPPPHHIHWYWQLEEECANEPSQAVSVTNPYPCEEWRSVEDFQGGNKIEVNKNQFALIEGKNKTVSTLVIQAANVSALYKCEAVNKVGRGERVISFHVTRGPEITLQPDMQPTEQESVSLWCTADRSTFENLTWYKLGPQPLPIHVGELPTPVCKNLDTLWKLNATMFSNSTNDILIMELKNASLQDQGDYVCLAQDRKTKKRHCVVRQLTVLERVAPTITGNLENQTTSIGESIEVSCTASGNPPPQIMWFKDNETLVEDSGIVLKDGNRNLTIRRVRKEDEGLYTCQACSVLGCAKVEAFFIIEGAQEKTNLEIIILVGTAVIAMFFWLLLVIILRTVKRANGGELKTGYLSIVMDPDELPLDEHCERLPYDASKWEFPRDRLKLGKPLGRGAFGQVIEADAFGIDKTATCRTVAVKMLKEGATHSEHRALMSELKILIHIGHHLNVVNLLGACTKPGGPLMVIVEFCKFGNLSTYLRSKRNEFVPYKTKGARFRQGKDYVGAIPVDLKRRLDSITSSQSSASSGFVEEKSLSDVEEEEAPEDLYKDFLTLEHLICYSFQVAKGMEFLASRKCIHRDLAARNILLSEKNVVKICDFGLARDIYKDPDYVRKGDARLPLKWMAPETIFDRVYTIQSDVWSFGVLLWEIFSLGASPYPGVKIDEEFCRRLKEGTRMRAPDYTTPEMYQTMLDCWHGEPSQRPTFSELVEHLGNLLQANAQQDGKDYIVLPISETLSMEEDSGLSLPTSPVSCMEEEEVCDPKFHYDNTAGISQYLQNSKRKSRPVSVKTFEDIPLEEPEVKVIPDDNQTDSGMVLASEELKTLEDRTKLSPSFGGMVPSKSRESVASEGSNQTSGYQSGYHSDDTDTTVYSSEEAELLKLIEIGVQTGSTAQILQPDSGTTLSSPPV

[8] = biological target: T3, Serine/threonine-protein kinase Chk1 (Homo sapiens, UniProt O14757); experiment: Inhibition of CHK1
T3 sequence (O14757 whole entry): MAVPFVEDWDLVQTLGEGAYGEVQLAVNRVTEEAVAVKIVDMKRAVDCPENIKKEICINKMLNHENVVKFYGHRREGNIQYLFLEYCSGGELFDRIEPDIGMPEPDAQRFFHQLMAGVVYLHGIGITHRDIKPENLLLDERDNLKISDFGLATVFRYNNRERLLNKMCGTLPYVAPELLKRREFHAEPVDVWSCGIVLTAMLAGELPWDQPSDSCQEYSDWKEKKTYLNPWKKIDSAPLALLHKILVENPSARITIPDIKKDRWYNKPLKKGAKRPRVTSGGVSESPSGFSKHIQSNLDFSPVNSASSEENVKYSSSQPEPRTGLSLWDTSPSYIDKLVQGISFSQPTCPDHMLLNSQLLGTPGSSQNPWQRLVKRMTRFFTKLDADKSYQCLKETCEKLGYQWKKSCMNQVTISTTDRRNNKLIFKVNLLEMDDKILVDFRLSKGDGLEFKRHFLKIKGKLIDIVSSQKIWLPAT

[9] = biological target: Ribosomal protein S6 kinase alpha-3 (Homo sapiens, UniProt P51812); experiment: Inhibition of RSK2
Chain of Ribosomal protein S6 kinase alpha-3 (P51812 whole entry): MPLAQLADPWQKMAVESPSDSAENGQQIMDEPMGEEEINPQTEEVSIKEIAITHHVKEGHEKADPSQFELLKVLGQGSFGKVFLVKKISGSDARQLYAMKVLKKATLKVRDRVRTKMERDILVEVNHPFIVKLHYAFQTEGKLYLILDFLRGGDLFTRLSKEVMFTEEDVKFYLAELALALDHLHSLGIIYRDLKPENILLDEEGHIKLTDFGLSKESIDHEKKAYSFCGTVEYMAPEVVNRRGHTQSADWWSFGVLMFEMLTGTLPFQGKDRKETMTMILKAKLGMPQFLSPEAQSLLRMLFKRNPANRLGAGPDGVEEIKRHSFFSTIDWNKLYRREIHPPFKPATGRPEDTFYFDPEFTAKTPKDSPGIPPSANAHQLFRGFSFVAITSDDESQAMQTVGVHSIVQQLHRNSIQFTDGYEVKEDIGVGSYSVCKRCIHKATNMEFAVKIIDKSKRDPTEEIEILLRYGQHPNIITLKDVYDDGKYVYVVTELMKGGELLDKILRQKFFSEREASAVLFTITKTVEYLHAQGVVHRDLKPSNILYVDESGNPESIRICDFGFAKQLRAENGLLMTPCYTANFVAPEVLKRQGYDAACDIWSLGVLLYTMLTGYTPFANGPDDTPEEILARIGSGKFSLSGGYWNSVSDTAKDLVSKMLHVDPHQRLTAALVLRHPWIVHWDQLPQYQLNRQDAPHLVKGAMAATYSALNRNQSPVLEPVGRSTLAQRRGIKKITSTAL

[10] = biological target: Mitogen-activated protein kinase 1 (Homo sapiens, UniProt P28482); experiment: Inhibition of ERK2
Chain of Mitogen-activated protein kinase 1 (P28482 whole entry): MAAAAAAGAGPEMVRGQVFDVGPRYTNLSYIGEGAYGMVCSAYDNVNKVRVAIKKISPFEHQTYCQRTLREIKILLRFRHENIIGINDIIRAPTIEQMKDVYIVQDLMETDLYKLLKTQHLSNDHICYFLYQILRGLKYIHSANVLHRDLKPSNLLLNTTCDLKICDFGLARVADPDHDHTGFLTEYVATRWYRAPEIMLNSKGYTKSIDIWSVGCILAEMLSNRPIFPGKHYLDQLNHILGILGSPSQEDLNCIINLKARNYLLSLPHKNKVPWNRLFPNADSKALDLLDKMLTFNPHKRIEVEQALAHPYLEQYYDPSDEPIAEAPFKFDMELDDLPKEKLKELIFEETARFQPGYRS

[11] = biological target: Tyrosine-protein kinase JAK2 (Homo sapiens, UniProt O60674); experiment: Inhibition of JAK2
Chain of Tyrosine-protein kinase JAK2 (O60674 whole entry): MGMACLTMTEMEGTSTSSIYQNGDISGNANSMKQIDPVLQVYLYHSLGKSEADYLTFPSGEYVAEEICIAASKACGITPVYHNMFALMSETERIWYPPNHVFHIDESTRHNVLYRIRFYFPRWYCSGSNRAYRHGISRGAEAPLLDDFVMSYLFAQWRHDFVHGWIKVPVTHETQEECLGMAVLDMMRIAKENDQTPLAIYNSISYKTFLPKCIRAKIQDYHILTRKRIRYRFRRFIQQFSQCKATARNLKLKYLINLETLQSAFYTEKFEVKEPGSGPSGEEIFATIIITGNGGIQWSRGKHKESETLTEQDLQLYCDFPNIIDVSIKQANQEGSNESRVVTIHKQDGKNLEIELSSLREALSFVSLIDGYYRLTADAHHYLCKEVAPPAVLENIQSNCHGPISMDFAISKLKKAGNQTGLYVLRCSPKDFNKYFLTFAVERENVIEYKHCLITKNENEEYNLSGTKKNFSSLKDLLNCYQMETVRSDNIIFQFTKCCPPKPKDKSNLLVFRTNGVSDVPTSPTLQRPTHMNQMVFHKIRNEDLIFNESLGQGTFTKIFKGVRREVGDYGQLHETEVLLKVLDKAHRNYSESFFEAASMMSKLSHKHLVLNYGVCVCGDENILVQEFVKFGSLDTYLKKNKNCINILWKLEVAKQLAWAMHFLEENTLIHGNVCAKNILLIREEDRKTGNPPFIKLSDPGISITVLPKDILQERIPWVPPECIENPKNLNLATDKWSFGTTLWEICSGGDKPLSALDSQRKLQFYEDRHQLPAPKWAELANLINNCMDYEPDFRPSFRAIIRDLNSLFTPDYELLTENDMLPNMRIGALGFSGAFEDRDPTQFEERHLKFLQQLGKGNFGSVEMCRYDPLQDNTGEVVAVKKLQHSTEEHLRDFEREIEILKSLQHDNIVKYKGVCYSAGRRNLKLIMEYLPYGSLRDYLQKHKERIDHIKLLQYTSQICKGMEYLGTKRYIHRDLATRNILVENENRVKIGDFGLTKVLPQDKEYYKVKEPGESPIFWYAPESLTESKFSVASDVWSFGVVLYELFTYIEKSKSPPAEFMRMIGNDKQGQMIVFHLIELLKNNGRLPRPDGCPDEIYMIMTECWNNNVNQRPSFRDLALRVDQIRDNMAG

[12] = AUC (0-infinity) in rat at 10 mg/kg, iv; assay type: ADME, organism-based; parameters: time infinity, dose 10 mg/kg, route intravenous; conditions: plasma
[13] = Clearance in rat at 10 mg/kg, iv; assay type: ADME, organism-based; parameters: dose 10 mg/kg, route intravenous; conditions: in vivo
[14] = Half life in rat at 10 mg/kg, iv; assay type: ADME, organism-based; parameters: dose 10 mg/kg, route intravenous; conditions: in vivo
[15] = Volume of distribution at steady state in rat at 10 mg/kg, iv; assay type: ADME, organism-based; parameters: dose 10 mg/kg, route intravenous; conditions: in vivo, read-out: Vdss
[16] = AUC (0-infinity) in rat at 30 mg/kg, po; assay type: ADME, organism-based; parameters: time infinity, dose 30 mg/kg, route oral; conditions: plasma
[17] = Oral bioavailability in rat at 30 mg/kg, po; assay type: ADME, organism-based; conditions: in vivo
[18] = AUC (0-infinity) in mouse at 3 mg/kg, iv; assay type: ADME, organism-based; parameters: time infinity, dose 3 mg/kg, route intravenous; conditions: plasma
[19] = Clearance in mouse at 3 mg/kg, iv; assay type: ADME, organism-based; parameters: dose 3 mg/kg, route intravenous; conditions: in vivo
[20] = Half life in mouse at 3 mg/kg, iv; assay type: ADME, organism-based; parameters: dose 3 mg/kg, route intravenous; conditions: in vivo
[21] = Volume of distribution at steady state in mouse at 3 mg/kg, iv; assay type: ADME, organism-based; parameters: dose 3 mg/kg, route intravenous; conditions: in vivo, read-out: Vdss
[22] = AUC (0-infinity) in mouse at 50 mg/kg, po; assay type: ADME, organism-based; parameters: time infinity, dose 50 mg/kg, route oral; conditions: plasma
[23] = Oral bioavailability in mouse at 50 mg/kg, po; assay type: ADME, organism-based; conditions: in vivo
[24] = tested on: Canis familiaris; experiment: AUC (0-infinity) in dog at 1 mg/kg, iv; assay type: ADME, organism-based, Canis lupus familiaris, Plasma; parameters: time infinity, dose 1 mg/kg, route intravenous; conditions: in vivo
[25] = tested on: Canis familiaris; experiment: Half life in dog at 1 mg/kg, iv; assay type: ADME, organism-based, Canis lupus familiaris; parameters: dose 1 mg/kg, route intravenous; conditions: in vivo
[26] = tested on: Canis familiaris; experiment: Volume of distribution at steady state in dog at 1 mg/kg, iv; assay type: ADME, organism-based, Canis lupus familiaris; parameters: dose 1 mg/kg, route intravenous; conditions: in vivo
[27] = tested on: Canis familiaris; experiment: AUC (0-infinity) in dog at 10 mg/kg, po; assay type: ADME, organism-based, Canis lupus familiaris, Plasma; parameters: time infinity, dose 10 mg/kg, route oral; conditions: in vivo
[28] = tested on: Canis familiaris; experiment: Oral bioavailability in dog at 10 mg/kg, po; assay type: ADME, organism-based, Canis lupus familiaris; conditions: in vivo
[29] = Solubility in 20 mM acetate buffer at pH 4.0; assay type: physicochemical
[30] = tested on: A2780; experiment: Antitumor activity against human A2780 cells xenografted in nu/nu mouse assessed as tumor growth inhibition at 45 mg/kg, po bid for 5 days relative to untreated control; assay type: functional; conditions: A2780, 120 h, read-out: TGI
[31] = tested on: A2780; experiment: Antitumor activity against human A2780 cells xenografted in nu/nu mouse assessed as tumor growth inhibition at 90 mg/kg, po bid for 3 days relative to untreated control; assay type: functional; conditions: A2780, 72 h, read-out: TGI
[32] = tested on: A2780; experiment: Antitumor activity against human A2780 cells xenografted in nu/nu mouse assessed as tumor growth inhibition at 67.5 mg/kg, po bid for 3 days relative to untreated control; assay type: functional; conditions: A2780, 72 h, read-out: TGI
[33] = tested on: A2780; experiment: Antitumor activity against human A2780 cells xenografted in nu/nu mouse assessed as tumor growth inhibition administered twice daily for 3 or 5 days; assay type: functional, cell-based
[34] = tested on: A2780; experiment: Antitumor activity against human A2780 cells assessed as inhibition of cell growth; assay type: functional, cell-based
[35] = tested on: A2780; experiment: Antitumor activity against human A2780 cells assessed as inhibition of cell survival; assay type: functional, cell-based

IC50 [1]: ≤ 0.004 µM
IC50 [2]: ≤ 0.013 µM
EC50 [3]: 0.014 µM
IC50 [4]: 0.045 µM
AUC(0-t) at 6 h [5]: 0.5 µM·h
SMILES: Cc1cn2c(-c3cn[nH]c3)cnc2c(Nc2cc(CN3CCCCC3(C)C)ns2)n1

IC50 [1]: 0.045 µM
IC50 [2]: 0.05 µM
EC50 [3]: 0.733 µM
AUC(0-t) at 6 h [5]: 0.3 µM·h
SMILES: Cc1cn2c(-c3cn[nH]c3)cnc2c(Nc2cc(C3(N4C[C@@H](C)O[C@@H](C)C4)CC3)ns2)n1

IC50 [1]: ≤ 0.004 µM
IC50 [2]: ≤ 0.013 µM
EC50 [3]: 0.082 µM
AUC(0-t) at 6 h [5]: 7.3 µM·h
SMILES: Cc1cn2c(-c3cn[nH]c3)cnc2c(Nc2cc(CN3C[C@@H](C)O[C@@H](C)C3)ns2)n1

IC50 [1]: ≤ 0.004 µM
IC50 [2]: ≤ 0.013 µM
EC50 [3]: > 1 µM
SMILES: CC(=O)N1CCN(Cc2cc(Nc3nc(C)cn4c(-c5cn[nH]c5)cnc34)sn2)CC1

IC50 [1]: ≤ 0.004 µM
IC50 [2]: ≤ 0.013 µM
EC50 [3]: > 1 µM
SMILES: CCNC(=O)N1CCN(Cc2cc(Nc3nc(C)cn4c(-c5cn[nH]c5)cnc34)sn2)CC1

IC50 [1]: ≤ 0.004 µM
IC50 [2]: ≤ 0.013 µM
EC50 [3]: 0.197 µM
AUC(0-t) at 6 h [5]: 0.4 µM·h
SMILES: Cc1cn2c(-c3cn[nH]c3)cnc2c(Nc2cc(CN3CCOCC34CCC4)ns2)n1

IC50 [1]: ≤ 0.004 µM
IC50 [2]: ≤ 0.013 µM
EC50 [3]: > 1 µM
SMILES: Cc1cn2c(-c3cn[nH]c3)cnc2c(Nc2cc(CN3CCN(CCO)CC3)ns2)n1

IC50 [1]: ≤ 0.004 µM
IC50 [2]: ≤ 0.013 µM
EC50 [3]: 0.267 µM
AUC(0-t) at 6 h [5]: 0.4 µM·h
SMILES: Cc1cn2c(-c3cn[nH]c3)cnc2c(Nc2cc(CN3C[C@H]4CC[C@@H](C3)O4)ns2)n1

IC50 [6]: 0.008 µM
IC50 [7]: ≤ 0.001 µM
IC50 [8]: 0.013 µM
IC50 [1]: ≤ 0.004 µM
IC50 [2]: ≤ 0.013 µM
EC50 [3]: 0.024 µM
IC50 [4]: ≤ 0.001 µM
IC50 [9]: 0.18 µM
SMILES: CCN(Cc1cc(Nc2nc(C)cn3c(-c4cn[nH]c4)cnc23)sn1)C(C)(C)CO

IC50 [2]: ≤ 0.013 µM
EC50 [3]: 0.25 µM
IC50 [4]: 0.568 µM
SMILES: Cc1cc(Nc2nc(C)cn3c(-c4cn[nH]c4)cnc23)sn1

IC50 [6]: 1.8 µM
IC50 [7]: 0.71 µM
IC50 [8]: 0.14 µM
IC50 [1]: ≤ 0.004 µM
IC50 [2]: ≤ 0.013 µM
EC50 [3]: 0.028 µM
IC50 [4]: 0.51 µM
AUC(0-t) at 6 h [5]: 4.6 µM·h
IC50 [9]: 0.33 µM
IC50 [10]: > 0.01 µM
IC50 [11]: > 0.01 µM
AUC(0-inf) [12]: 38.8 µM·h
clearance [13]: 0.6 L/h/kg
half-life [14]: 5 h
Vd [15]: 1.6 L/kg
AUC(0-inf) [16]: 57.7 µM·h
bioavailability [17]: 72%
AUC(0-inf) [18]: 5.6 µM·h
clearance [19]: 1.2 L/h/kg
half-life [20]: 3.9 h
Vd [21]: 1.5 L/kg
AUC(0-inf) [22]: 86.4 µM·h
bioavailability [23]: 92%
AUC [24]: 3.4 µM·h
t1/2 [25]: 4.8 h
Vdss [26]: 12 L/kg
AUC [27]: 2.2 µM·h
F [28]: 50%
solubility [29]: 4.66 mg/mL (≈ 10.6 mM)
EC50 [34]: 0.019 µM
SMILES: Cc1cn2c(-c3cn[nH]c3)cnc2c(Nc2cc([C@@H](C)N3C[C@@H](C)O[C@@H](C)C3)ns2)n1
inhibition in vivo at 45 mg/kg [30]: 41%
inhibition in vivo at 90 mg/kg [31]: 79%
inhibition in vivo at 67.5 mg/kg [32]: 67%
TGI [33]: Dose-dependent effect
EC50 [35]: 0.02 µM

IC50 [1]: ≤ 0.004 µM
IC50 [2]: ≤ 0.013 µM
EC50 [3]: 0.561 µM
AUC(0-t) at 6 h [5]: 0.38 µM·h
SMILES: CCOC(=O)N1CCN(Cc2cc(Nc3nc(C)cn4c(-c5cn[nH]c5)cnc34)sn2)CC1

IC50 [1]: ≤ 0.004 µM
IC50 [2]: ≤ 0.013 µM
EC50 [3]: > 1 µM
SMILES: Cc1cn2c(-c3cn[nH]c3)cnc2c(Nc2cc(CN3CCOC[C@@H]3CO)ns2)n1

IC50 [1]: ≤ 0.004 µM
IC50 [2]: ≤ 0.013 µM
EC50 [3]: > 1 µM
SMILES: Cc1cn2c(-c3cn[nH]c3)cnc2c(Nc2cc(CN3CCN(C)C(=O)C3)ns2)n1

IC50 [1]: ≤ 0.004 µM
IC50 [2]: ≤ 0.013 µM
EC50 [3]: 0.412 µM
SMILES: Cc1cn2c(-c3cn[nH]c3)cnc2c(Nc2cc(CN3CCN(C)CC3)ns2)n1
